Assay results from PMC6947424, “New Targeted Gold Nanorods for the Treatment of Glioblastoma by Photodynamic Therapy” (Journal of Clinical Medicine, 2019).
Several values for one entry are separate records, joined by “and”; a condition that tells them apart may be missing. Identical values can stand only once. Like-named read-outs stand apart in the source and are kept apart here. Residues, ends and D or L forms follow the SMILES beside them. *: point of attachment. Pyropheophorbide(a) = C=Cc1c(C)c2cc3nc(c4c5[nH]c(cc6nc(cc1[nH]2)C(C)=C6CC)c(C)c5C(=O)C4)[C@@H](CCC(=O)*)[C@@H]3C; Hexanoyl(6-maleimido) = O=C1C=CC(=O)N1CCCCCC(=O)*

Tests used:
[1] = Fluorescence emission (quantum yield and lifetime); assay type: physicochemical; conditions: ethanol; for τf (fluorescence lifetime): TCSPC, single exponential fit; for Φf (fluorescence quantum yield): excitation 412 nm, TPP in toluene as standard, 25 °C
Protocol: (§1) The setup and the protocol to evaluate the photophysical characterizations including the absorption, fluorescence, and singlet oxygen emission spectra in addition to the fluorescence and singlet oxygen lifetimes have been previously described by our team. The absorption spectra were recorded on a UV-3600 UV–vis double beam spectrophotometer (Shimadzu, Marne La Vallée, France) in the wavelength range of 200-800 nm. The measurements were performed on the molecules dispersed in ethanol in quartz cuvettes with an optical path of 10 mm. The fluorescence spectra were recorded on a Horiba Jobin Yvon Fluorolog-3 (FL3-222) spectrofluorimeter equipped with a 450W xenon lamp, a thermostated cell compartment (25 °C), a R928 (Hamamatsu, Massy, France) UV–vis photomultiplier and a liquid nitrogen cooled InGaAs infrared detector (DSS-16A020L Electro-Optical System Inc., Phoenixville, PA, USA). The excitation spectrometer used is a SPEX double grating monochromator (1200 grooves per mm blazed at 330 nm). The fluorescence was measured using the UV–vis detector through a SPEX double grating monochromator (600 grooves per mm blazed at 500 nm). The singlet oxygen production was measured using the IR detector through a SPEX double grating monochromator (600 grooves per mm blazed at 1 μm).
(§2) Fluorescence quantum yields (Φf) were determined using a tetraphenyl porphyrin (TPP) solution as the fluorescence standard (Φf = 0.11 in toluene, taking into account solvent refractive index and absorption efficiencies. For the direct determination of ^1O2 quantum yield (ΦΔ), excitation was performed with a Xe-arc, the light was separated in a SPEX 1680, 0.22 µm double monochromator. Detection at 1270 nm was carried out through a PTI S/N 1565 monochromator and the emission was monitored by a liquid nitrogen cooled Ge-detector (EO-817L, North Coast Scientific Co, OH, USA). Rose Bengal (RB) was chosen as a reference solution because of its high ^1O2 quantum yield in EtOH (ΦΔ = 0.68). The absorbance value at the excitation wavelengths (412 nm) of both the reference and the sample solutions were set to approximately 0.2 by dilution. The samples were all prepared in ethanol.
The quantum yield of fluorescence is determined by the equation (1):(1) Φf=Φf0×If/If0×[…]×(n/n0)^2 where Φf and Φf0, If and If0, DO and DO0, n and n0 are the quantum yields, intensities, optical densities and refraction indices of the sample and reference, respectively.
(§3) Fluorescence lifetimes were measured by Time-Correlated Single Photon Counting (TCSPC) using for excitation a pulsed laser diode LDH-P-C-405 coupled with a PDL 800-D driver (both from PicoQuant GmbH, Berlin, Germany) emitting at 408 nm (FWHM < 70 ps, 1 MHz) and an SPCM-AQR-15 avalanche photodiode (EG & G, Vaudreuil, Canada) coupled with a 650 nm (±10 nm) interference long-wave pass filter as the detection system. The acquisition system was a PicoHarp 300 module with a PHR-800 four-channel router (both from PicoQuant GmbH, Berlin, Germany). Fluorescence decays were recorded using the single photon counting method (four optical faced quartz cells for pure products in ethanol). Data were collected, and up to 1000 counts were accumulated in the maximum channel and analyzed using Fluofit TCSPC software (PicoQuant GmbH, Berlin, Germany) based on iterative reconvolution using a Levensberg-Marquandt algorithm. Singlet oxygen lifetime measurements have been performed on a TEMPRO-01 spectrophotometer (Horiba Jobin Yvon, Palaiseau, France). The apparatus was composed of a pulsed diode excitation source SpectraLED-415 emitting at 415 nm, a cuvette compartment, a Seya–Namioka type emission monochromator (600–2000 nm), and an H10330-45 near-infrared photomultiplier tube with a thermoelectric cooler (Hamamatsu, Massy, France) as the detection system. The system was monitored by a single photon counting controller FluoroHub-B and the software DataStation and DAS6 (Horiba Jobin Yvon, Palaiseau, France). […]

[2] = Singlet oxygen production (quantum yield and lifetime); assay type: physicochemical; conditions: ethanol; for ΦΔ (singlet oxygen quantum yield): excitation 412 nm, detection 1270 nm, Rose Bengal as reference
Protocol: as §1, §2
The quantum yield of singlet oxygen production is determined by the equation (2):(2) ΦΔ=ΦΔ0×I/I0×[…] where ΦΔ and ΦΔ0, I and I0, DO and DO0 are the luminescence quantum yields of singlet oxygen, the luminescence intensities and the optical densities of the sample and reference, respectively.
as §3

[3] = Estimation of PS or peptide loading / molar extinction coefficient; assay type: physicochemical; conditions: water, 381 nm, from calibration curve
Protocol: The loading of the PS onto the AuNRs was estimated relying on the molar extinction coefficient (ε) calculated for the MI-K(Pyro)DKPPR-OH conjugate. A calibration curve was developed based on the different concentrations of the conjugate, in water, that correspond to different optical densities (OD). The ε was determined using Beer Lambert’s Law at 381 nm, which constitutes the wavelength of the Soret band of Pyro in water. (3) A = εLC where A, ε, L and C stand for the absorption (OD), molar absorptivity (extinction, L·mol^−1·cm^−1), length (cm) and concentration (mol·L^−1).
The concentration of Pyro in AuNRs@PEG-MI-K(Pyro)DKPPR-OH was calculated for a mass concentration of 1 mg·mL^−1. Moreover, the concentration of the peptide was also determined, as only 1 peptide unit is conjugated to 1 PS molecules. On this basis, the amount of peptide was also estimated to 1 mg·mL^−1 of the functionalized AuNRs.

[4] = in methanol; ref [16]; cited from earlier work
Protocol: Fluorescence quantum yields (Φf) were determined using a tetraphenyl porphyrin (TPP) solution as the fluorescence standard (Φf = 0.11 in toluene, taking into account solvent refractive index and absorption efficiencies. For the direct determination of ^1O2 quantum yield (ΦΔ), excitation was performed with a Xe-arc, the light was separated in a SPEX 1680, 0.22 µm double monochromator. Detection at 1270 nm was carried out through a PTI S/N 1565 monochromator and the emission was monitored by a liquid nitrogen cooled Ge-detector (EO-817L, North Coast Scientific Co, OH, USA). Rose Bengal (R ... || These findings are also consistent with the Φf value of Pyro reported by other authors (Φf = 0.3 and in methanol). […] This property can serve in the ...

[5] = tends to aggregate easily; ref [3],[4],[14],[86]; cited from earlier work

Compound | τf (fluorescence lifetime) [1] [ns] | Φf (fluorescence quantum yield) [1] | τΔ (singlet oxygen lifetime) [2] [μs] | ΦΔ (singlet oxygen quantum yield) [2] | molar extinction coefficient (ε) [3] [L/mol/cm] | Φf (fluorescence quantum yield) [4] | solubility in biological media [5]
C=Cc1c(C)c2cc3nc(c4c5[nH]c(cc6nc(cc1[nH]2)C(C)=C6CC)c(C)c5C(=O)C4)[C@@H](CCC(=O)NCCCC[C@H](NC(=O)CCCCCN1C(=O)C=CC1=O)C(=O)N[C@@H](CC(=O)O)C(=O)N[C@@H](CCCCN)C(=O)N1CCC[C@H]1C(=O)N1CCC[C@H]1C(=O)N[C@@H](CCCNC(=N)N)C(=O)O)[C@@H]3C [MI-K(Pyro)DKPPR-OH] ({Hexanoyl(6-maleimido)}-K(Pyropheophorbide(a))DKPPR-OH) | 6.5 | 0.29 | 13 | 0.39 | 64012 |  | 
C=Cc1c(C)c2cc3nc(c4c5[nH]c(cc6nc(cc1[nH]2)C(C)=C6CC)c(C)c5C(=O)C4)[C@@H](CCC(=O)O)[C@@H]3C [Pyro, pyropheophorbide-a, reference compound] | 6.8 | 0.38 | 14 | 0.5 and 0.51 |  | 0.3 | poorly soluble in biological media
